Measured values reported in patent publication US12263139B2, “Use of cannabidiol in the treatment of tuberous sclerosis complex” (Jazz Pharmaceuticals Research UK Limited, priority 2017, dated 2025).

Columns and labels:
AML 621-101 cells [1] = experiment: Transwell cell migration assay in AML 621-101 cells; type: cell-based
Procedure: (§1) (i) Angiomyolipomas (AML) cells derived from a Tuberous Sclerosis Complex patient (621-101 cell-line), with a known loss of function of TSC2. […] Zeocin™ was purchased from LifeTechnologies (cat no: R25001) and was used to originally generate the stable cell line (by Prof. Lisa Henske) over two weeks of Zeocin™ selection and then for continued maintenance of the cells in tissue culture (at 100 μg/ml).
(§2) Tsc2−/− and Tsc2+/+ cell lines were cultured and maintained in DMEM supplemented with 10% (v/v) FBS and 1% (v/v) penicillin-streptomycin in a humidified incubator (5% CO2 at 37° C.). The AML −/− cell lines were cultured and maintained in DMEM supplemented with 15% (v/v) FBS and 1% (v/v) penicillin-streptomycin in a humidified incubator (5% CO2 at 37° C.). For hypoxia, cells were put into a Binder CB150 hypoxic chamber set at 1% 02 for the indicated time points
The stock concentration of CBD was made to 20 mM in dimethyl sulfoxide (DMSO). […]
(§3) Transwell permeable supports with 6.5 mm diameter inserts, 8.0 μm pore size, and a polycarbonate membrane were used to perform migration assays. […] Cells were counted using a haemocytometer. […] The percentage of adherent cells was then determined by fixing the cells with methanol and acetone (1:1) for 20 minutes at 20° C. […] Crystal Violet stained cells were eluted with 1% (w/v) SDS and the absorbance was read at 550 nm on a Genova MK3 Lifescience.

Tsc2−/− MEFs = experiment: Transwell cell migration assay in Tsc2−/− MEFs; type: cell-based, mouse; conditions: Tsc2+/+ as control cell; reduction not significant; FIG. 2 (A)
Procedure: (ii) Tsc2−/− p53−/− and Tsc2+/+p53−/− mouse embryonic fibroblast (MEF) cell lines (now referred to as Tsc2−/− and Tsc2+/+, respectively).
as §2
The stock concentration of CBD was made to 20 mM in dimethyl sulfoxide (DMSO). CBD was added to culture media to final concentrations of either 5 μM or 10 μM, as indicated). The final concentration of the DMSO in the cell culture medium was at a maximum level of 0.05% (v/v).
as §3, with “assays. Cells were grown in a 75-cm2 flask with standard medium (10% (v/v) FBS) until confluent.” for “assays.”

Miapaca = experiment: Drug combination assay (MTT, CalcuSyn) of Rad001 and CBD in Miapaca; type: cell-based, Homo sapiens
Procedure: For the study of the synergism between Rad001 and CBD on pancreatic cell lines Miapaca was tested, the cells were seeded in 96-multiwell plates at the density of 3.8 10^3 cells/well. After 24 hr incubation at 37° C., the cells were treated with different concentrations of Rad001 and CBD. Different molar ratios between two drugs in different sequences of administration were tested, (Rad001 for 48 h and CBD for 72 h or Rad001 for 72 h and CBD for 48 h and in co-administration for 72 h.
The proliferative response was estimated by colorimetric 3-(4,5 di-methylthiazol-2-yl)-2,5-diphenyltetrazolium bromide (MIT) test. MTT conversion to formazan by metabolically viable cells was monitored by spectrophotometer at an optical density of 570 nm. Each data point represents the average of three separate experiments with each experiment containing four wells. Drug combination studies were based on concentration-effect curves generated as a plot of the fraction of unaffected (surviving) cells versus drug concentration after treatment.
To explore the relative contribution of each agent to the synergism equi-active doses of […] were tested (IC50). Assessment of synergy was performed quantitating drug interaction by Calcusyn computer program (Biosoft, Ferguson, MO). Combination index (CI) values of <1, 1, and >1 indicate synergy, additivity and antagonism, respectively.
Dose reduction index (DRI) representing the measure of how much the dose of each drug in a combination may be reduced at a given effect level compared with the doses of each drug alone.
The effects of the pharmacological combination between CBD and RAD001 on the proliferation MIAPACA cell lines, using MTT assay were studied. The data obtained were processed with dedicated program, CalcuSyn (Chou and Talalay, Biosoft, Oregon, USA), which measures synergism.
The specific contribution of CBD and Rad001 on the cytotoxic effect of the combination of drugs was analyzed by calculating the potentiation factor (PF) defined as the ratio of the IC50 of either CBD or Rad001 alone to the IC50 of CBD and Rad001 in combination. A higher PF indicates a greater cytotoxicity.

AML 621-101 cells [2] = experiment: Matrigel cell invasion assay in AML 621-101 cells; type: cell-based; conditions: CBD at both 5 μM and 10 μM
Procedure: as §1
Tsc2−/− and Tsc2+/+ cell lines were cultured and maintained in DMEM supplemented with 10% (v/v) FBS and 1% (v/v) penicillin-streptomycin in a humidified incubator (5% CO2 at 37° C.). […]
as §3
For invasion assays, a similar protocol was used; however, the top chamber of the Transwell was filled with […] of BD Matrigel Basement Membrane Matrix (1 mg/mL). […] The number of invaded cells was determined by fixation staining and elution of crystal violet with 1% (w/v) SDS, as before.

HIF-1α protein = experiment: Western blot of hypoxia induced HIF-1α in AML 621-101; type: cell-based; conditions: CBD at 10 μM
Procedure: as §2
Cells were washed in Phosphate Buffered Saline (PBS) and then lysed directly in sample buffer (62.5 mM Tris HCL, 50 mM DTT, 2% SDS (w/v), 10% Glycerol (w/v), 0.1% Bromophenol blue (w/v) pH 7.6) and sonicated for 5×20 s cycles on full power (30 amplitude microns). Samples were boiled at 95° C. for 10 min. Lysates were resolved by SDS-PAGE and proteins were transferred to polyvinylidene difluoride membranes.
Membranes were blocked in 5% (w/v) dry milk powder dissolved in Tris-buffered saline containing 0.1% (v/v) Tween, then probed with primary antibody and horse radish peroxidase-conjugated secondary antibody. Proteins were visualized using Enhanced Chemiluminescent solution and Hyperfilm. Antibodies towards ribosomal protein S6 (rpS6), phospho-rpS6 (Ser235/236) were purchased from Cell Signaling Technology. Anti-HIF-1α was obtained from BD transduction laboratories. Statistical Analysis […]

C=C(C)[C@@H]1CCC(C)=C[C@H]1c1c(O)cc(CCCCC)cc1O [CBD, Cannabidiol] was tested, and the “cell migration compared with rapamycin” value (AML 621-101 cells [1]; 10 μM CBD) was “reduced cell migration to a significantly greater extent than rapamycin”, the cell migration (AML 621-101 cells [1]; CBD at both 5 μM and 10 μM) was “significantly block” and the cell migration (Tsc2−/− MEFs) was “reduce cell migration to control level”. For the same compound, the IC50 (Miapaca; Homo sapiens, MIA PaCa-2, Miapaca, 50% effect level, read-out: Dose of drug alone) was 3.6 µM, the DRI50 (Miapaca; Miapaca, Rad/CBD combination, dose reduction index) was “CBD 7.1” and the “potentiation factor (PF)” value (Miapaca; ratio of IC50 alone to IC50 of CBD and Rad001 in combination) was 8. The cell invasion (AML 621-101 cells [2]) was “significantly block” and the “hypoxia induced expression of HIF-1α protein” value (HIF-1α protein) was “sufficient to block hypoxia induced expression of HIF-1α protein”.
